This series can be described thus: solubility of K-252a in various solvents at 22° C. It counts as physicochemical.

Molecules are shown by their SMILES.

Take `COC(=O)[C@@]1(O)C[C@H]2O[C@]1(C)n1c3ccccc3c3c4c(c5c6ccccc6n2c5c31)C(=O)NC4` [K-252a, methyl (1R,2S,4R)-2,4-(6,7,12,13-tetrahydro-5H-indolo[2,3-a]pyrrolo[3,4-c]carbazol-5-onediyl)-1-hydroxy-2-methyltetrahydrofuran carboxylate]: the Solubility is, setting by setting: (solvent 1% water/acetone) 9.36 mg K-252a/g solvent; (solvent 5% acetone/methanol) 0.90 mg K-252a/g solvent; (solvent 10% MTHF/methanol) 1.20 mg K-252a/g solvent; (solvent 10% acetone/methanol) 1.22 mg K-252a/g solvent; (solvent 10% water/MTHF (kinetic)) 104.07 mg K-252a/g solvent; (solvent 10% water/MTHF (thermodynamic)) 31.97 mg K-252a/g solvent. Also, the Solubility (solvent 10% water/acetone) is 18.25 mg K-252a/g solvent; the Solubility (solvent 10% water/methanol) is reported as 0.54 mg K-252a/g solvent; the Solubility (solvent 20% water/acetone) is recorded as 17.78 mg K-252a/g solvent; the Solubility (solvent 20% water/methyl acetate) was >17.7 mg K-252a/g solvent; the Solubility (solvent 30% water/acetone) was 12.40 mg K-252a/g solvent; the Solubility (solvent 50% acetone/methanol) was determined as 7.93 mg K-252a/g solvent. Moreover, the Solubility runs as follows: (solvent 75% acetone/methanol) 18.59 mg K-252a/g solvent; (solvent MTHF) 27.99 mg K-252a/g solvent; (solvent acetone) 7.99 mg K-252a/g solvent; (solvent methanol) 0.72 mg K-252a/g solvent; (solvent methyl acetate) >11.7 mg K-252a/g solvent.

These data come from patent publication US20090239271A1, “FERMENTATION BROTH EXTRACTION OF K-252A” (ABBOTT LABORATORIES, priority 2005, published 2009).
